Reference: US10844013B2, “Phenyl amino piperidine mTORC inhibitors and uses thereof” (Navitor Pharmaceuticals, Inc., priority 2016, dated 2020)
Structures can show the parent of a compound that is named as a salt.

Key:
[1] = tested on: pS6K1 (p-p70 S6 Kinase (Thr389)) in MCF-7 cells; assay: AlphaLISA Ultra pS6K1 assay; type: cell-based; conditions: Homo sapiens, MCF7, 2 h, 2 hours compound incubation
Outline: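 MCF-7 cells seeded 20–24 h, medium refreshed 2 h, then treated 2 h with compound (0.5% DMSO final). Lysates probed for Thr389-phosphorylated p70 S6K by AlphaLISA Ultra, 2 h acceptor then 2 h donor bead incubation, read on a multimode reader.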

[2] = tested on: pAKT (p-Akt 1/2/3 (Ser473)) in MCF-7 cells; assay: AlphaLISA Ultra pAKT assay; type: cell-based; conditions: Homo sapiens, MCF7, 2 hours compound incubation
Outline: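 AlphaLISA read-out (2 h acceptor-bead, then 2 h donor-bead incubation) on thawed lysates of MCF-7 cells exposed to compounds for 2 h in 0.5% DMSO. Cells had been plated 20-24 h and given fresh medium 2 h before dosing.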

Structure (SMILES)	IC50 [1]	IC50 [2]
Cc1cc(C)c(C(=O)N2CCN(c3ccc(F)cn3)[C@H](CO)C2)cc1NC1CCN(c2ccccc2C#N)CC1 [I-117, (S)-2-(4-(5-(4-(5-fluoropyridin-2-yl)-3-(hydroxymethyl)piperazine-1-carbonyl)-2,4-dimethylphenylamino)piperidin-1-yl)benzonitrile]	10 to 1000 nM	> 10000 nM
Cc1cc(C)c(C(=O)N2CCN(c3ccccn3)C(C)(C)C2)cc1NC1CCN(c2ccccc2C#N)CC1 [I-118]	1000 to 3000 nM	> 10000 nM
Cc1cc(C)c(C(=O)N2CCN(c3ccccc3)C(C)(C)C2)cc1NC1CCN(c2ccccc2C#N)CC1 [I-119, 2-(4-(5-(3,3-Dimethyl-4-phenylpiperazine-1-carbonyl)-2,4-dimethylphenylamino)piperidin-1-yl)benzonitrile]	> 10000 nM	> 10000 nM
Cc1ccc(C(=O)N2CCN(c3ncccc3S(N)(=O)=O)CC2)c(C)c1NC1CCN(c2ccccc2C#N)CC1 [I-120, 2-(4-(3-(1-(2-cyanophenyl)piperidin-4-ylamino)-2,4-dimethylbenzoyl)piperazin-1-yl)pyridine-3-sulfonamide]	10 to 1000 nM	> 10000 nM
Cc1cc(C)c(C(=O)N2CCN(c3ncccc3S(N)(=O)=O)[C@H](C)C2)cc1NC1CCN(c2ccccc2C#N)CC1 [I-122, (R)-2-(4-(5-(1-(2-Cyanophenyl)piperidin-4-ylamino)-2,4-dimethylbenzoyl)-2-methylpiperazin-1-yl)pyridine-3-sulfonamide]	10 to 1000 nM	> 10000 nM
CNC(=O)c1cccnc1N1CCN(C(=O)c2cc(NC3CCN(c4ccccc4C#N)CC3)c(C)cc2C)C[C@H]1C [I-123, (R)-2-(4-(5-(1-(2-Cyanophenyl)piperidin-4-ylamino)-2,4-dimethylbenzoyl)-2-methylpiperazin-1-yl)-N-methylnicotinamide]	1000 to 3000 nM	> 10000 nM
Cc1ccc(C(=O)N2CCN(c3ccccc3S(N)(=O)=O)CC2)c(C)c1NC1CCN(c2ccccc2C#N)CC1 [I-124, 2-[4-[3-[[1-(2-cyanophenyl)-4-piperidyl]amino]-2,4-dimethyl-benzoyl]piperazin-1-yl]benzenesulfonamide]	10 to 1000 nM	> 10000 nM
N#Cc1ccccc1N1CCC(Nc2cc(C(=O)N3CCN(c4ccccc4S(N)(=O)=O)CC3)c(Cl)cc2Cl)CC1 [I-125, 2-(4-(2,4-dichloro-5-(1-(2-cyanophenyl)piperidin-4-ylamino)benzoyl)piperazin-1-yl)benzenesulfonamide]	> 10000 nM	> 10000 nM
COc1cc(C)c(C(=O)N2CCN(c3ccccc3S(N)(=O)=O)CC2)cc1NC1CCN(c2ccccc2C#N)CC1 [I-127, 2-(4-(5-(1-(2-Cyanophenyl)piperidin-4-ylamino)-4-methoxy-2-methylbenzoyl)piperazin-1-yl)benzenesulfonamide]	3000 to 5000 nM	> 10000 nM
Cc1cccc(N2CCC(Nc3cc(C(=O)N4CCN(c5ccccc5S(N)(=O)=O)CC4)c(C)cc3C)CC2)c1 [I-129, 2-(4-(2,4-Dimethyl-5-(1-m-tolylpiperidin-4-ylamino)benzoyl)piperazin-1-yl)benzenesulfonamide]	1000 to 3000 nM	> 10000 nM
Cc1cc(C)c(C(=O)N2CCN(c3ccccc3S(N)(=O)=O)CC2)cc1NC1CCN(c2ccccc2C#N)C1 (centres unmarked) [I-131, 2-(4-(5-(1-(2-cyanophenyl)pyrrolidin-3-ylamino)-2,4-dimethylbenzoyl)piperazin-1-yl)benzenesulfonamide]	> 10000 nM	> 10000 nM
Cc1cc(C)c(C(=O)N2CCN(c3ccccc3S(N)(=O)=O)CC2)cc1NC1C2CN(c3ccccc3C#N)CC21 (centres unmarked) [I-132, 2-(4-(5-(3-(2-Cyanophenyl)-3-azabicyclo[3.1.0]hexan-6-ylamino)-2,4-dimethylbenzoyl)piperazin-1-yl)benzenesulfonamide]	1000 to 3000 nM	> 10000 nM
Cc1cc(C)c(C(=O)N2CCN(c3ccccc3)C(CN)C2)c(C)c1NC1CCN(c2ccccc2C#N)CC1 (centres unmarked) [I-135, 2-[4-({3-[3-(Aminomethyl)-4-phenylpiperazine-1-carbonyl]-2,4,6-trimethylphenyl}amino)piperidin-1-yl]benzonitrile; bis(formic acid) salt]	10 to 1000 nM	> 10000 nM
Cc1cc(C)c(C(=O)N2CC(=O)N(c3ccc(F)c(F)c3)[C@H](CO)C2)c(C)c1NC1CCN(c2ccccc2C#N)CC1 [I-136, 2-[4-({3-[(3S)-4-(3,4-difluoro-phenyl)-3-(hydroxy-methyl)-5-oxopiperazine-1-carbonyl]-2,4,6-trimethyl-phenyl}amino)piperidin-1-yl]benzonitrile]	10 to 1000 nM	> 10000 nM
Cc1cc(C)c(C(=O)N2CCN(c3ccccc3)[C@H](CN)C2)c(C)c1NC1CCN(c2ccccc2C#N)CC1 [I-137, 2-[4-({3-[(3R)-3-(Aminomethyl)-4-phenylpiperazine-1-carbonyl]-2,4,6-trimethylphenyl}amino)piperidin-1-yl]benzonitrile]	10 to 1000 nM	> 10000 nM
Cc1cc(C)c(C(=O)N2CCN(c3ccccc3)C(C(N)=O)C2)c(C)c1NC1CCN(c2ccccc2C#N)CC1 (centres unmarked) [I-139, 4-(3-{[1-(2-cyanophenyl)piperidin-4-yl]amino}-2,4,6-trimethyl-benzoyl)-1-phenyl-piperazine-2-carboxamide]	10 to 1000 nM	> 10000 nM
Cc1cc(C)c(C(=O)N2CCN(c3cccnn3)[C@H](CO)C2)c(C)c1NC1CCN(c2ccccc2C#N)CC1 [I-140, 2-[4-({3-[(3S)-3-(hydroxy-methyl)-4-(pyridazin-3-yl)piperazine-1-carbonyl]-2,4,6-trimethyl-phenyl}amino)piperidin-1-yl] benzonitrile]	10 to 1000 nM	> 10000 nM
Cc1cc(C)c(C(=O)N2CCN(c3ccccc3)C(C(N)=O)C2)c(C)c1NC1CCN(c2ccc(F)cc2C#N)CC1 (centres unmarked) [I-142, 4-(3-{[1-(2-cyano-4-fluorophenyl)piperidin-4-yl]amino}-2,4,6-trimethyl-benzoyl)-1-phenyl-piperazine-2-carboxamide]	10 to 1000 nM	> 10000 nM
Cc1cc(C)c(C(=O)N2CCN(c3ccccn3)C(=O)C2)c(C)c1NC1CCN(c2ccc(F)cc2C#N)CC1 [I-143, 5-fluoro-2-[4-({2,4,6-trimethyl-3-[3-oxo-4-(pyridin-2-yl)piperazine-1-carbonyl]phenyl}amino)piperidin-1-yl] benzonitrile]	10 to 1000 nM	> 10000 nM
Cc1cc(C)c(C(=O)N2CCN(c3ccc(F)cc3)C(C(N)=O)C2)c(C)c1NC1CCN(c2ccc(F)cc2C#N)CC1 (centres unmarked) [I-144, 4-(3-{[1-(2-cyano-4-fluorophenyl)piperidin-4-yl]amino}-2,4,6-trimethyl-benzoyl)-1-(4-fluorophenyl) piperazine-2-carboxamide]	10 to 1000 nM	> 10000 nM
Cc1cc(C)c(C(=O)N2CCN(c3ccccc3)[C@H](CO)C2)c(C)c1NC1CCN(c2ccc(F)cn2)CC1 [I-145, [(2S)-4-(3-{[1-(5-fluoropyridin-2-yl)piperidin-4-yl]amino}-2,4,6-trimethyl-benzoyl)-1-phenyl-piperazin-2-yl]MeOH]	10 to 1000 nM	> 10000 nM
Cc1cc(C)c(C(=O)N2CCN(c3ccc(F)cn3)[C@H](CO)C2)c(C)c1NC1CCN(c2ccc(F)cn2)CC1 [I-146, [(3S)-4-(5-Fluoro-2-pyridyl)-3-(hydroxymethyl)piperazin-1-yl]-[3-[[1-(5-fluoro-2-pyridyl)-4-piperidyl]amino]-2,4,6-trimethyl-phenyl]methanone]	10 to 1000 nM	10 to 1000 nM
Cc1cc(C)c(C(=O)N2CCN(c3ccccn3)[C@H](CO)C2)c(C)c1NC1CCN(c2ccc(F)cn2)CC1 [I-147, [(2S)-4-(3-{[1-(5-Fluoropyridin-2-yl)piperidin-4-yl]amino}-2,4,6-trimethylbenzoyl)-1-(pyridin-2-yl)piperazin-2-yl]methanol]	10 to 1000 nM	> 10000 nM
Cc1cc(C)c(C(=O)N2CCN(c3ccc(F)cn3)[C@H](CO)C2)c(C)c1NC1CCN(c2cnccn2)CC1 [I-148, [(3S)-4-(5-Fluoro-2-pyridyl)-3-(hydroxymethyl)piperazin-1-yl]-[2,4,6-trimethyl-3-[(1-pyrazin-2-yl-4-piperidyl)amino]phenyl]methanone]	10 to 1000 nM	> 10000 nM
Cc1cc(C)c(C(=O)N2CCN(c3ccccn3)[C@H](CO)C2)c(C)c1NC1CCN(c2cnccn2)CC1 [I-149, [(2S)-1-(pyridin-2-yl)-4-(2,4,6-trimethyl-3-{[1-(pyrazin-2-yl)piperidin-4-yl]amino}benzoyl)piperazin-2-yl]MeOH]	10 to 1000 nM	> 10000 nM
Cc1cc(C)c(C(=O)N2CCN(c3ccccc3)[C@H](C(N)=O)C2)c(C)c1NC1CCN(c2cnccn2)CC1 [I-150, (2S)-1-phenyl-4-(2,4,6-trimethyl-3-{[1-(pyrazin-2-yl)piperidin-4-yl]amino}benzoyl) piperazine-2-carboxamide]	10 to 1000 nM	> 10000 nM
Cc1cc(C)c(C(=O)N2CCN(c3ccc(F)cn3)[C@H](CO)C2)c(C)c1NC1CCN(c2ncccn2)CC1 [I-151, [(2S)-1-(5-Fluoropyridin-2-yl)-4-(2,4,6-trimethyl-3-{[1-(pyrimidin-2-yl)piperidin-4-yl]amino}benzoyl)piperazin-2-yl]methanol]	10 to 1000 nM	> 10000 nM
Cc1cc(C)c(C(=O)N2CCN(c3ccccc3)[C@@H](C(N)=O)C2)c(C)c1NC1CCN(c2cnccn2)CC1 [I-152, (2R)-1-phenyl-4-(2,4,6-trimethyl-3-{[1-(pyrazin-2-yl)piperidin-4-yl]amino}benzoyl) piperazine-2-carboxamide]	> 10000 nM	> 10000 nM
